Where a chain is given by its changes, count along the chain named. Where two headings read alike, the source gives them in different places.
Key:
[1] = molecular target: T1, Cys^10Ser mutant 17β-HSD1 (Homo sapiens, UniProt P14061, C11S); assay: Cys^10Ser mutant 17β-HSD1 reductase activity (estrone to estradiol) in lysates of transfected HEK-293 cells; assay type: biochemical
T1 construct: expressed in transfected cells; host or cells: HEK-293 (transient calcium phosphate transfection; cell lysates used)
T1 sequence (P14061 1-328 C11S): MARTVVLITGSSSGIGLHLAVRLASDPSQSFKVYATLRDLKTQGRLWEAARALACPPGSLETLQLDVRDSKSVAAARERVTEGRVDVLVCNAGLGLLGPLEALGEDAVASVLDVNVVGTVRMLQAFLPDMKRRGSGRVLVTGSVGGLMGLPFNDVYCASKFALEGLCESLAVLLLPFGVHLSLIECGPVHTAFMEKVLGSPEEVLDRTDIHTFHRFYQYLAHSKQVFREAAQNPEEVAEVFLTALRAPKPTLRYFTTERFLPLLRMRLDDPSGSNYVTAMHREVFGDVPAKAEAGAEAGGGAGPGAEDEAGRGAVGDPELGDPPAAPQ
Description: In order to facilitate detection, an octahistidine tag was added to the C-terminus of human 17β-HSD1 by PCR amplification using oligonucleotide primers containing the tag-coding sequence (forward primer 5′-[…]-3′, reverse primer 5′-[…]-3′). […] The substitution of Cys^10 to serine was introduced into the C-terminal histidine-tagged 17β-HSD1 cDNA in Bluescript vector by site-directed mutagenesis using the forward primer 5′-[…]-3′ and the reverse primer 5′-[…]-3′ according to the Quick Change mutagenesis kit (Stratagene, Amsterdam, The Netherlands), followed by subsequent recloning into pcDNA3.1 expression plasmid.
(§1) To determine 17β-HSD1 activity, HEK-293 cells were transfected by the calcium phosphate precipitation method. Cells were harvested 48 h after transfection, washed twice with phosphate-buffered saline (PBS), and centrifuged for 4 min at 150 ×g. Supernatants were removed and the cell pellets were quick-frozen in a dry ice-ethanol bath and stored at −80°C. The reductase activity of 17β-HSD1 was measured by incubation of cell lysates for 10 min at 37°C in the presence of 200 nM radiolabeled estrone and 400 μM NADPH in a reaction buffer containing 20% glycerol, 1 mM EDTA, and 50 mM potassium phosphate, pH 7.4. Inhibitors were diluted from stock solutions in dimethylsulfoxide (DMSO) and immediately used in the assays.
(§2) For determination of enzyme kinetics, estrone concentrations ranging from 10 to 800 nM were used. Data (mean ± SD) were obtained from three independent experiments and were calculated using the Data Analysis Toolbox (Elsevier MDL, Allschwil, Switzerland).

human 17β-HSD1 = molecular target: T2, human 17β-HSD1 (Homo sapiens, UniProt P14061); assay: 17β-HSD1 reductase activity (estrone to estradiol) in lysates of transfected HEK-293 cells; assay type: biochemical; conditions: for IC50 for 17β-HSD1 compared with those obtained for 11β-HSD2: simultaneous incubation with substrate and inhibitor, 11β-HSD2 values from ref 20
T2 construct: expressed in transfected cells; host or cells: HEK-293 (transient calcium phosphate transfection; cell lysates used)
T2 sequence (P14061 1-328): T1 sequence (P14061 1-328 C11S) with S11C
Description: as §1, §2

[2] = simultaneous incubation of lysates with 200 nM estrone and inhibitor, 400 μM NADPH, 10 min, 37°C, read-out: IC50

Compound | IC50 (human 17β-HSD1; [2]) | IC50 for 17β-HSD1 compared with those obtained for 11β-HSD2 (human 17β-HSD1) | other results
CCN1C(=O)C=CC1=O [NEM, N-ethylmaleimide] | 22 ± 6 µM |  | inhibition of wild-type enzyme relative to mutant Cys^10Ser ([1]; cell lysates, data not shown): approximately two times stronger; 17β-HSD1 activity after preincubation with inhibitor (human 17β-HSD1; preincubation of lysates with 20 μM NEM for 1 h prior to the addition of estrone, data not shown): completely abolished; effect of preincubation with NADPH on inhibition (human 17β-HSD1; preincubation with NADPH for 15 min, NEM 60 μM, estrone 200 nM, NADPH 400 μM, concentration dependent): protected from inhibition
CCN(CC)C(=S)SSC(=S)N(CC)CC [disulfiram] | 8 ± 1 µM | about two orders of magnitude higher | 
C[C@]12CC[C@@H]3c4ccc(O)cc4CC[C@H]3[C@@H]1CCC2=O [estrone] |  |  | K m ([1]; Cys^10Ser mutant, estrone 10 to 800 nM, 400 μM NADPH): 0.065 ± 0.003 µM; V max ([1]; Cys^10Ser mutant, estrone 10 to 800 nM, 400 μM NADPH, normalized to protein expression): 124 ± 3 nmol/h/mg; K m (human 17β-HSD1; wild-type, estrone 10 to 800 nM, 400 μM NADPH): 0.043 ± 0.006 µM; V max (human 17β-HSD1; wild-type, estrone 10 to 800 nM, 400 μM NADPH, normalized to protein expression): 110 ± 5 nmol/h/mg
CN(C)C(=S)SSC(=S)N(C)C [thiram] | 21 ± 4 µM | about two orders of magnitude higher | 
S=C(S)NCCNC(=S)S [zineb] |  | about two orders of magnitude higher | IC50 (human 17β-HSD1): 24 ± 3 µM
maneb | 25 ± 3 µM | about two orders of magnitude higher | 

From paper PMC3855964, “Cysteine-10 on 17β-Hydroxysteroid Dehydrogenase 1 Has Stabilizing Interactions in the Cofactor Binding Region and Renders Sensitivity to Sulfhydryl Modifying Chemicals” (International Journal of Cell Biology, 2013)
